Assay results taken from patent US20260262643A1, “HERBICIDAL BENZOXAZINES” (FMC CORPORATION, priority 2022, published 2026).

Assays:
[1] = test system: ragweed; assay: Test C postemergence; format: in vivo, Ambrosia artemisiifolia; conditions: 10 days, 0 to 100 scale (0 no effect, 100 complete control)
Summary of the method: (§1)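 Seeds in loam–sand blend received preemergence directed soil spray of test chemicals in non-phytotoxic solvent with surfactant; postemergence treatment was applied at one- to two-leaf stage (2–10 cm). After 10 days in greenhouse, injury rated visually versus untreated controls, 0 (no effect) to 100 (complete control).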

[2] = test system: ragweed; assay: Test C preemergence; format: in vivo, Ambrosia artemisiifolia
Summary of the method: as §1

[3] = test system: oat, wild; assay: Test C postemergence; format: in vivo, Avena fatua; conditions: 10 days, 0 to 100 scale (0 no effect, 100 complete control)
Summary of the method: as §1

[4] = test system: sedge, umbrella; assay: Test D flooded paddy test; format: in vivo, Cyperus difformis; conditions: 250 g ai/ha, applied to paddy water, visual rating after 13 to 14 days, scale 0 to 100 (0 no effect, 100 complete control)
Summary of the method: (§2)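 Plants grown to the 2-leaf stage; pots flooded to 3 cm above soil at treatment and held at that depth throughout. Test compounds applied directly to the paddy water. After 13 to 14 days in a greenhouse, response was rated visually versus controls on a 0 (no effect) to 100 (complete control) scale.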

[5] = test system: barnyardgrass; assay: Test D flooded paddy test; format: in vivo, Echinochloa crus-galli; conditions: 250 g ai/ha, applied to paddy water, visual rating after 13 to 14 days, scale 0 to 100 (0 no effect, 100 complete control)
Summary of the method: as §2

[6] = test system: foxtail, giant; assay: Test C preemergence; format: in vivo, Setaria faberi
Text: (§3) Seeds of plant species selected from barnyardgrass (Echinochloa crusgalli), blackgrass (Alopecurus myosuroides), corn (Zea mays), foxtail, giant (giant foxtail, Setaria faberi), green foxtail (Setaria viridis), goosegrass (Eleusine indica), kochia (Bassia scoparia), oat, wild (wild oat, Avena fatua), pigweed, palmer (palmer amaranth, palmer pigweed, Amaranthus palmeri), Pigweed, Redroot (redroot pigweed, Amaranthus retroflexus), ragweed (common ragweed, Ambrosia artemisiifolia), ryegrass, Italian ([…] ryegrass, Lolium multiflorum), soybean (Glycine max), and wheat (Triticum aestivum) were planted into a blend of loam soil and sand and treated preemergence with a directed soil spray using test chemicals formulated in a non-phytotoxic solvent mixture which included a surfactant. At the same time, plants selected from these crops and weed species and also galium (catchweed bedstraw, Galium aparine) and horseweed (Erigeron canadensis) were planted in pots containing the same blend of loam soil and sand and treated with postemergence applications of test chemicals formulated in the same manner. Plants ranged in height from 2 to 10 cm and were in the one- to two-leaf stage for the postemergence treatment. Treated plants and untreated controls were maintained in a greenhouse for 10 days, after which time all treated plants were compared to untreated controls and visually evaluated for injury. Plant response ratings, summarized in Table C, are based on a 0 to 100 scale where 0 is no effect and 100 is complete control. A dash (-) response means no test result.

[7] = test system: wheat; assay: Test C postemergence; format: in vivo, Triticum aestivum; conditions: 10 days, 0 to 100 scale (0 no effect, 100 complete control)
Summary of the method: as §1

[8] = test system: soybean; assay: Test C preemergence; format: in vivo, Glycine max
Summary of the method: as §1

[9] = test system: oat, wild; assay: Test C preemergence; format: in vivo, Avena fatua
Summary of the method: as §1

[10] = test system: barnyardgrass; assay: Test C preemergence; format: in vivo, Echinochloa crusgalli
Summary of the method: as §1

[11] = test system: horseweed; assay: Test C postemergence; format: in vivo, Erigeron canadensis; conditions: 10 days, 0 to 100 scale (0 no effect, 100 complete control)
Summary of the method: as §1

[12] = test system: ryegrass, Italian; assay: Test C preemergence; format: in vivo, Lolium multiflorum
Summary of the method: as §1

[13] = test system: kochia; assay: Test C preemergence; format: in vivo, Bassia scoparia
Summary of the method: as §1

[14] = test system: ducksalad; assay: Test D flooded paddy test; format: in vivo, Heteranthera limosa; conditions: 250 g ai/ha, applied to paddy water, visual rating after 13 to 14 days, scale 0 to 100 (0 no effect, 100 complete control)
Summary of the method: as §2

[15] = test system: pigweed, palmer; assay: Test C postemergence; format: in vivo, Amaranthus palmeri; conditions: 10 days, 0 to 100 scale (0 no effect, 100 complete control)
Summary of the method: as §1

[16] = test system: foxtail, giant; assay: Test C postemergence; format: in vivo, Setaria faberi; conditions: 10 days, 0 to 100 scale (0 no effect, 100 complete control)
Text: as §3

[17] = test system: soybean; assay: Test C postemergence; format: in vivo, Glycine max; conditions: 10 days, 0 to 100 scale (0 no effect, 100 complete control)
Summary of the method: as §1

[18] = test system: barnyardgrass; assay: Test C postemergence; format: in vivo, Echinochloa crusgalli; conditions: 10 days, 0 to 100 scale (0 no effect, 100 complete control)
Summary of the method: as §1

[19] = test system: wheat; assay: Test C preemergence; format: in vivo, Triticum aestivum
Summary of the method: as §1

[20] = test system: blackgrass; assay: Test C preemergence; format: in vivo, Alopecurus myosuroides
Summary of the method: as §1

[21] = test system: ryegrass, Italian; assay: Test C postemergence; format: in vivo, Lolium multiflorum; conditions: 10 days, 0 to 100 scale (0 no effect, 100 complete control)
Summary of the method: as §1

[22] = test system: kochia; assay: Test C postemergence; format: in vivo, Bassia scoparia; conditions: 10 days, 0 to 100 scale (0 no effect, 100 complete control)
Summary of the method: as §1

[23] = test system: blackgrass; assay: Test C postemergence; format: in vivo, Alopecurus myosuroides; conditions: 10 days, 0 to 100 scale (0 no effect, 100 complete control)
Summary of the method: as §1

[24] = test system: galium; assay: Test C postemergence; format: in vivo, Galium aparine; conditions: 10 days, 0 to 100 scale (0 no effect, 100 complete control)
Summary of the method: as §1

[25] = test system: corn; assay: Test C postemergence; format: in vivo, Zea mays; conditions: 10 days, 0 to 100 scale (0 no effect, 100 complete control)
Summary of the method: as §1

[26] = test system: pigweed, palmer; assay: Test C preemergence; format: in vivo, Amaranthus palmeri
Summary of the method: as §1

[27] = test system: rice; assay: Test D flooded paddy test; format: in vivo, Oryza sativa; conditions: 250 g ai/ha, applied to paddy water, visual rating after 13 to 14 days, scale 0 to 100 (0 no effect, 100 complete control)
Summary of the method: as §2

[28] = 500 g ai/ha, preemergence, 0 to 100 scale (0 no effect, 100 complete control)
[29] = Preemergence, 125 g ai/ha, 0 to 100 scale, 0 no effect, 100 complete control

Compound: COc1ccc(-n2cnc(C3CCC3)n2)cc1C(=O)N1C[C@H](C)Oc2c(Cl)cccc21 [Compound 323]
- Plant response rating, Ragweed ([1]; 500 g ai/ha, postemergence): 70
- Plant response rating, Ragweed ([1]; Postemergence, 125 g ai/ha): 60
- Ragweed plant response rating [2, 28]: 100
- Plant response rating, Ragweed [2, 29]: 30
- Plant response rating, Oat, Wild ([3]; 500 g ai/ha, postemergence): 20
- Plant response rating, Oat, Wild ([3]; Postemergence, 125 g ai/ha): 20
- Plant response rating, Sedge, Umbrella (Flood) [4]: 70
- Plant response rating, Barnyardgrass (Flood) [5]: 30
- Foxtail, Giant plant response rating [6, 28]: 100
- Plant response rating, Foxtail, Giant [6, 29]: 90
- Plant response rating, Wheat ([7]; 500 g ai/ha, postemergence): 20
- Plant response rating, Wheat ([7]; Postemergence, 125 g ai/ha): 20
- Soybean plant response rating [8, 28]: 80
- Plant response rating, Soybean [8, 29]: 50
- Oat, Wild plant response rating [9, 28]: 70
- Plant response rating, Oat, Wild [9, 29]: 20
- Barnyardgrass plant response rating [10, 28]: 100
- Plant response rating, Barnyardgrass [10, 29]: 70
- Plant response rating, Horseweed ([11]; 500 g ai/ha, postemergence): 40
- Plant response rating, Horseweed ([11]; Postemergence, 125 g ai/ha): 30
- Ryegrass, Italian plant response rating [12, 28]: 80
- Plant response rating, Ryegrass, Italian [12, 29]: 70
- Kochia plant response rating [13, 28]: 100
- Plant response rating, Kochia [13, 29]: 90
- Plant response rating, Ducksalad (Flood) [14]: 30
- Plant response rating, Pigweed, Palmer ([15]; 500 g ai/ha, postemergence): 100
- Plant response rating, Pigweed, Palmer ([15]; Postemergence, 125 g ai/ha): 80
- Plant response rating, Foxtail, Giant ([16]; 500 g ai/ha, postemergence): 90
- Plant response rating, Foxtail, Giant ([16]; Postemergence, 125 g ai/ha): 20
- Plant response rating, Soybean ([17]; 500 g ai/ha, postemergence): 100
- Plant response rating, Soybean ([17]; Postemergence, 125 g ai/ha): 100
- Plant response rating, Barnyardgrass ([18]; 500 g ai/ha, postemergence): 60
- Plant response rating, Barnyardgrass ([18]; Postemergence, 125 g ai/ha): 30
- Wheat plant response rating [19, 28]: 80
- Plant response rating, Wheat [19, 29]: 60
- Blackgrass plant response rating [20, 28]: 80
- Plant response rating, Blackgrass [20, 29]: 70
- Plant response rating, Ryegrass, Italian ([21]; 500 g ai/ha, postemergence): 60
- Plant response rating, Ryegrass, Italian ([21]; Postemergence, 125 g ai/ha): 10
- Plant response rating, Kochia ([22]; 500 g ai/ha, postemergence): 90
- Plant response rating, Kochia ([22]; Postemergence, 125 g ai/ha): 90
- Plant response rating, Blackgrass ([23]; 500 g ai/ha, postemergence): 90
- Plant response rating, Blackgrass ([23]; Postemergence, 125 g ai/ha): 50
- Plant response rating, Galium ([24]; 500 g ai/ha, postemergence): 100
- Plant response rating, Galium ([24]; Postemergence, 125 g ai/ha): 100
- Plant response rating, Corn ([25]; 500 g ai/ha, postemergence): 50
- Plant response rating, Corn ([25]; Postemergence, 125 g ai/ha): 10
- Pigweed, Palmer plant response rating [26, 28]: 100
- Plant response rating, Pigweed, Palmer [26, 29]: 100
- Plant response rating, Rice (Flood) [27]: 0
